{"source": "patent US8785430B2", "about": "“Compound that can inhibit UBC13-UEV interactions, pharmaceutical compositions and therapeutic uses” (Consejo Superior de Investigaciones Cientificas, priority 2006, dated 2014)", "key": {"[1]": {"target": "T1, UBC13-UEV1 (Homo sapiens, UniProt P61088)", "T1 construct": "GST (N); made in house; host or cells: Escherichia coli BL21", "T1 sequence (P61088 1-152)": "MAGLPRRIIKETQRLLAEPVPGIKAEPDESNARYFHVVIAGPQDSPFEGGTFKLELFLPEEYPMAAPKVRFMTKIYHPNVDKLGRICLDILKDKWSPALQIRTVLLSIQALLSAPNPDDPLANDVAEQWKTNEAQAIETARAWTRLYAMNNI", "assay": "In vitro free polyubiquitin chain formation assay", "format": "biochemical", "protocol": "As described in the Background, K63 type polyubiquitylation catalyzed by UBC13-UEV1 requires the interaction between both subunits of the heterodimer. […] In this assay, the formation of polyubiquitin chains in reactions containing 0.1 μM of E1 enzyme (Boston Biochem), 0.2 μM of UBC13, 0.2 μM of UEV1 (produced as described in Example 4), 117 μM of wild-type ubiquitin (Biomol UW8795) or mutated in all the lysines except the lysine in position 63 (ubiquitin K63) or in position 48 (ubiquitin K48; Boston Biochem), is allowed in a reaction buffer with 50 mM of Tris-HC at pH 7.6, 5 mM of MgCl2 and 0.5 mM of dithiothreitol. For the treatments with compound Ia (Varubin), UBC13 was pre-incubated for 10 minutes at room temperature with 100 μM of the compound before being added to the reaction. The reaction was initiated by means of adding 2 mM of ATP, and it was performed by means of incubating at 37° C. at different times, being stopped by means of adding Laemmli buffer (250 mM Tris-HCl, 10% SDS, 500 mM DTT, 0.5% bromophenol blue and 50% glycerol at pH 6.8) and boiling for 3 minutes. The samples were separated electrophoretically in polyacrylamide-SDS gels and transferred electrophoretically to PVDF membranes."}, "[2]": {"tested_on": "PC-3 cells", "assay": "CyQuant cell count, sensitization to doxorubicin", "format": "cell-based, human", "conditions": "100 μM of compound Ia", "protocol": "The addition of 100 μM of Ia reduced the IC50 of doxorubicin to 0.1 μM for PC-3 cells and the IC50 of etoposide to 0.04 μM for HeLa cells. Therefore, the treatment with 100 μM of compound Ia causes a sensitization to the cytotoxic effects of doxorubicin of 5 times (PC-3 cells) and a sensitization to the cytotoxic effects of etoposide of 30 times (HeLa cells)."}}}
{"smiles": "NC(=O)CN(CCc1ccccn1)C(=O)C1CC(=O)N(CCc2ccc(F)cc2)CC(=O)N1CCc1ccc(F)cc1", "note": "(stereo not shown) [Ia, N-aminocarbamoylmethyl-N-(2′-(2″pyridyl)ethyl)-1,4-bis[2′-(4″-fluorophenyl)ethyl]-3,7-dioxo-[1,4]diazepane-5-carboxamide]", "values": [{"measurement": "type of inhibition of the enzymatic activity of UBC13-UEV1", "setting": "[1]; 100 μM, slopes of the curves", "value": "competitive type"}, {"measurement": "inhibition of polyubiquitylation with ubiquitin K63 as substrate", "setting": "[1]; 100 μM, ubiquitin K63", "value": "efficiency similar to when the substrate is wild-type ubiquitin"}, {"measurement": "rate of generation of polyubiquitylated forms", "setting": "[1]; UBC13 pre-incubated with 100 μM, wild-type ubiquitin", "value": "lower rate of generation of polyubiquitylated forms"}, {"measurement": "sensitization to the cytotoxic effects of doxorubicin", "setting": "[2]", "value": 5, "unit": "times"}]}
